This note sets out measurements from US20220062418A1, “TUMOR TARGETING VITAMIN B12 DERIVATIVES FOR X-RAY ACTIVATED CHEMOTHERAPY” (THE TRUSTEES OF DARTMOUTH COLLEGE, priority 2018, published 2022).

This assay has as its system tumor stroma. The assay is described as follows: Losartan effect on stroma and perfusion in two tumor models. It counts as in vivo. To be noted: preliminary data. An excerpt: In an alternative embodiment, we add transcobalamin II to enhance uptake of cobalamin derivatives into tissue. […] Drug delivery is thought to be impeded by the dense stroma of pancreatic adenocarcinoma, and so delivery of cobalamin conjugates could be limited by this issue. […] In an alternative embodiment we treat with Losartan for 10 days prior to cobalamin-drug conjugate treatment to enhance the delivery of this platform to the PDAC tumor stroma.

With `CCCCc1nc(Cl)c(CO)n1Cc1ccc(-c2ccccc2-c2nn[nH]n2)cc1` [Losartan], the microvessel perfusion entry is listed as “increases in microvessel perfusion” and the stromal formation result is “reduce stromal formation”.
